# Laboratory results taken from US20170252362A1, “METHODS & COMPOUNDS USEFUL IN HEMATOPOIETIC STEM CELL MEDICINE” (ECOLE POLYTECHNIQUE FEDERALE DE LAUSANNE (EPFL), priority 2014, published 2017).
# Experiments:
# [1] = test system: hematopoietic stem and progenitor pool sizes in the bone marrow; test: Flow cytometry analysis of hematopoietic stem and progenitor pool sizes in bone marrow of mice fed the agent; format: in vivo, mouse; settings: 1 week treatment through the food, flow cytometry
# Description: Bone marrow (BM) cells were isolated from C57Bl/6J and C57Bl/6J Ly5.1 from crushed femora and tibia. Flow cytometry analysis of hematopoietic stem and progenitor cells was performed on freshly isolated bone marrow (BM). Cell suspensions were filtered through a 70 μm cell strainer and erythroid cells were eliminated by incubation with red blood cells lysis buffer (eBioscences). Lineage-positive cells were removed with a magnetic lineage depletion kit (Miltenyi Biotech). Cell suspensions were stained with a panel of specific antibodies for stem and progenitor cells and analyzed or FACS-sorted respectively on a BD LSRII and BD FACS Aria II.
# C57Bl/6J and C57Bl/6J Ly5.1 were purchased from Charles River Laboratories International and maintained in micro-isolator cages. Mice were provided continuously with sterile food, water and bedding. Nicotinamide riboside (NR) (custom synthesized as triflate salt by Novalix in Strasbourg) was supplied in the food at 0.4 g/Kg mouse and mice were treated for 1 and 4 weeks respectively.
# [2] = test system: HSC mitochondrial activity; test: In vivo assay of HSC mitochondrial activity: TMRM flow cytometry of freshly isolated HSC from mice fed the compounds; parameters: species or system mouse; settings: mice fed with the compounds
# Excerpt: The effect of agents on HSC mitochondrial activity has been assessed by measuring mitochondrial activity in vivo: freshly isolated HSC from mice fed with the compounds were stained by TMRM and analyzed by flow cytometry.
# [3] = Konieczna et al., 2013; cited from earlier work
compound,measurement,setting,value
"NC(=O)c1cccnc1 [NAM, Nicotinamide]",hematopoietic stem and progenitor compartments in BM,[1],did not show significant expansion
same,ability to reduce mitochondrial membrane potential in HSCs,[2],not able to significantly reduce mitochondrial membrane potential in HSCs
same,platelet levels in mice,[3],did not increase the platelet levels
